Patent US9771376B2 (GENENTECH, INC., priority 2000, dated 2017)

Target: human NaV1.7 (Homo sapiens (Human), UniProt Q15858)
Experiment: Patch voltage clamp electrophysiology assay, NaV1.7
Assay type: cell-based
Conditions: inactivated state; HEK-293 cells stably expressing NaV1.7 with β1 subunit; held at −60 mV; read-out: Human 1.7 EP (IC50 μM)

Sequence of human NaV1.7 (Q15858 other isoform, or with tags, fused parts or gaps): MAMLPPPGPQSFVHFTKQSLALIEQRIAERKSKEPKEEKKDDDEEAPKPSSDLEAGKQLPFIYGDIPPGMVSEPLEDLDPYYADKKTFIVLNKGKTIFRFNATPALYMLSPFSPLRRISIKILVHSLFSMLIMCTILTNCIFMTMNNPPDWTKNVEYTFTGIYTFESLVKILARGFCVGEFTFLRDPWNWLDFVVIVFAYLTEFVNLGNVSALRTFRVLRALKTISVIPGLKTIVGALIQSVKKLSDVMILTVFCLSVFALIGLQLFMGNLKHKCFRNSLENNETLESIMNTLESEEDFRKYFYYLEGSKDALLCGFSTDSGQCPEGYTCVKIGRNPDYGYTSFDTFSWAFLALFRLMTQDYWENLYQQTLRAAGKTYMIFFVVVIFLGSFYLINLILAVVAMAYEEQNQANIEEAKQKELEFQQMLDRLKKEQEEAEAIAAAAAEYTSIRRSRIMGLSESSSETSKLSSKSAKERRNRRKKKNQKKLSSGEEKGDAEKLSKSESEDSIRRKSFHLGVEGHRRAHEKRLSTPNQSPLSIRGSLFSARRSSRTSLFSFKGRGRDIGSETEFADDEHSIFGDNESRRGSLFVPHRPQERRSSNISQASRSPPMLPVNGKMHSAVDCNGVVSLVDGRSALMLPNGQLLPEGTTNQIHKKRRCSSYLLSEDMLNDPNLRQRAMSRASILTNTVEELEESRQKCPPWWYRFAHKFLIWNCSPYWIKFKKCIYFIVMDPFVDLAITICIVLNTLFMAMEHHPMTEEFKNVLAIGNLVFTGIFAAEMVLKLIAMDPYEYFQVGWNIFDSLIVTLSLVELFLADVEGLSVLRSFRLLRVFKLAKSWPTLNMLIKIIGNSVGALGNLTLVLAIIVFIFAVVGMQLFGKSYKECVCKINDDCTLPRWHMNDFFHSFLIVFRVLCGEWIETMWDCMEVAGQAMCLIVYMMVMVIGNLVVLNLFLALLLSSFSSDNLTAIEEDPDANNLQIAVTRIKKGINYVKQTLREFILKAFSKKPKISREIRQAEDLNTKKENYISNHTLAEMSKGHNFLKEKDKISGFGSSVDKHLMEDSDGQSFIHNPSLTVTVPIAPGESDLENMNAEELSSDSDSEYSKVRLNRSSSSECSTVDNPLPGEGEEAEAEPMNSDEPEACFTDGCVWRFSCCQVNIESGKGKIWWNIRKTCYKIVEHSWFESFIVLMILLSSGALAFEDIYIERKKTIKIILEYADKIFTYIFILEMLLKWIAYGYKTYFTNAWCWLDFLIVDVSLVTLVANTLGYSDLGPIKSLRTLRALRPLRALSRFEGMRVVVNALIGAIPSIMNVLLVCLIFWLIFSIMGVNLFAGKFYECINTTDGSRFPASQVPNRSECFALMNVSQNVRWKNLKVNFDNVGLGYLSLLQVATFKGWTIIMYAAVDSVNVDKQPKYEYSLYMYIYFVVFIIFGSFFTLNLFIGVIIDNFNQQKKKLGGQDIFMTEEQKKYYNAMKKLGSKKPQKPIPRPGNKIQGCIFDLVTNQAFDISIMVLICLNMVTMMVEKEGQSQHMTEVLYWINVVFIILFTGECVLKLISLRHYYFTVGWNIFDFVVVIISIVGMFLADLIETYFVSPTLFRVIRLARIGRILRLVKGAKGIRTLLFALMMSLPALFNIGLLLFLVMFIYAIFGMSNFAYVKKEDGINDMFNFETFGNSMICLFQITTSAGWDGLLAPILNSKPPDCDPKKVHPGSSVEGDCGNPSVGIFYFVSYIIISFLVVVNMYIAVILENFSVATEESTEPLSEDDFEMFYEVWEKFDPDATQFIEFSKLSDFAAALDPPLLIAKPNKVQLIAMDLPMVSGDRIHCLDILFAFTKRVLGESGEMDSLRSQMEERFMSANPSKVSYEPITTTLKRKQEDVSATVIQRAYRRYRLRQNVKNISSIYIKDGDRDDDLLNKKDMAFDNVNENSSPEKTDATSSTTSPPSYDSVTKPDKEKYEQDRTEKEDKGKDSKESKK
Sequence of human NaV1.7 (Q07699 19-218 partner): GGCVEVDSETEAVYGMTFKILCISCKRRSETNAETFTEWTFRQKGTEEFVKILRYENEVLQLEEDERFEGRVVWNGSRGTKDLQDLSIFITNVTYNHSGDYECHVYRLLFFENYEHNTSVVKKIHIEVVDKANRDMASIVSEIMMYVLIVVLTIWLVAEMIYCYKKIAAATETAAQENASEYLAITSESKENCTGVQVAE

IC50	Molecule
0.0386 µM	4-(1-(adamantan-1-yl)ethoxy)-5-chloro-2-fluoro-N-(methylsulfonyl)benzamide [Example 19]
0.123 µM	4-(2-(adamantan-1-yl)ethoxy)-3-chloro-N-(methylsulfonyl)benzamide [Example 13]
2.25 µM	4-(adamantan-1-ylmethoxy)-5-chloro-N-(N,N-dimethylsulfamoyl)-2-fluorobenzamide [Example 28]
0.0036 µM	4-(bicyclo[2.2.1]heptan-2-yloxy)-5-chloro-2-fluoro-N-(methylsulfonyl)-benzamide [Example 145]
0.0658 µM	5-Chloro-2-fluoro-N-(methylsulfonyl)-4-((2,2,3,3-tetramethylcyclopropyl)-methoxy)benzamide [Example 34]
0.0077 µM	5-chloro-2-fluoro-N-(methylsulfonyl)-4-((1-(trifluoromethyl)cyclopropyl)-methoxy)benzamide [Example 36]
0.0416 µM	5-chloro-4-(3-cyclohexylpropoxy)-N-(N,N-dimethylsulfamoyl)-2-fluorobenzamide [Example 82]
0.171 µM	CC1(C)C2CCC1(C)C(Oc1cc(F)c(C(=O)NS(C)(=O)=O)cc1Cl)C2 (stereo not drawn) [Example 15, 5-chloro-2-fluoro-N-(methylsulfonyl)-4-((exo-1,7,7-trimethylbicyclo[2.2.1]heptan-2-yl)oxy)benzamide]
0.0854 µM	CN(C)S(=O)(=O)NC(=O)c1cc(Cl)c(OC2CCC3(CCCCC3)CC2)cc1F [Example 79]
0.00131 µM	CN(C)S(=O)(=O)NC(=O)c1cc(Cl)c(OCC23CC4CC(CC(F)(C4)C2)C3)cc1F [Example 86, 5-chloro-N-(N N-dimethylsulfamoyl)-2-fluoro-4-((3-fluoroadamantan-1-yl)methoxy)benzamide]

Molecule	IC50
CS(=O)(=O)NC(=O)c1cc(Cl)c(OC2[C@@H]3CC4C[C@H]2CC(Cl)(C4)C3)cc1F (stereo partly drawn) [Example 25, 5-chloro-4-(((1R,2r,3S,5s,7s)-5-chloroadamantan-2-yl)oxy)-2-fluoro-N-(methylsulfonyl)benzamide]	0.027 µM

Target: human NaV1.5 (Homo sapiens (Human), UniProt Q14524)
Experiment: Patch voltage clamp electrophysiology assay, NaV1.5
Conditions: read-out: Human 1.5 EP IC50 μM; inactivated state; HEK-293 cells stably expressing NaV1.5 with β1 subunit; held at −60 mV

Molecule	IC50
4-(adamantan-1-ylmethoxy)-5-chloro-2-fluoro-N-(methylsulfonyl)benzamide [Example 8]	1.07 µM
